Assay in all cases: DTP human tumour cell line panel, 48 h
Test [1] has as its system BT-549.
Test [2] concerns PC-3.
The test system of test [3] is DMS-114.
In test [4] the test system is DMS-273.
The subject of test [5] is KM-20L2.
The subject of test [6] is LXFL 529.
Test [7] has as its system M19-MEL.
The subject of test [8] is XF498.

Values joined by “and” are separate entries in the source; they are usually repeats but may differ in a detail not shown here. Equal entries are not always repeated.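 Briefly, cells in 96-well plates were exposed to five compound concentrations for 48 h, and endpoints were estimated by linear interpolation. GI50 marks 50% less growth.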 Active and inactive are the calls of the source. Cut-off read from the data, not from the text of the source: active = GI50 up to about 1.1 µM and inactive = higher. Where a SMILES comes first, the peptide text is derived from it. [ ]: non-standard residue; d: D form. The star is where a group is joined. Phe(4-NO2) = N[CH](Cc1ccc([N+](=O)[O-])cc1)C(=O)O; Boc = CC(C)(C)OC(=O)*; OtBu = CC(C)(C)O*

The GI50 is the concentration at which growth is held to half of that of the control. Regarding `CC(=O)OCCN1c2ccccc2Sc2cnccc21`, the GI50 in test [1] and in test [2] was > 10 µM (inactive) each time.
Turning to `COc1ccc2c(c1)-c1nc(=S)n(CCCN(C)C)c3ccc([N+](=O)[O-])c(c13)N2`, the results for the GI50 in test [1] and in test [2] were 7.21 µM (inactive) and 0.771 µM (active), respectively.
For `NCCCc1nonc1C(=O)O`, the GI50 in test [2] was > 100 µM (inactive).
With `CC(C)(C)c1cc(C(=O)O)c2c(c1)C(=O)OC2(c1ccccc1)c1ccccc1C(=O)O` (stereo unspecified), the GI50 in test [3], in test [4], in test [5], in test [6], in test [7] and in test [8] was > 100 µM (inactive) in each case.
In the case of `CCOC(=O)C1Cc2ccc(C)cc2C1=O` (stereo unspecified), the GI50 in test [2] is > 100 µM (inactive).
Take `O=C1Nc2nnc(S)n2NC12c1ccccc1-c1ccccc12`: the GI50 in test [1] and in test [2] was > 100 µM (inactive) each time.
On to `O=C(/C=C/c1ccccc1Cl)c1ccccc1Cl`, for which the GI50 in test [3] is 19.9 µM (inactive); in test [4], 16.9 µM (inactive); in test [5], 18.1 µM (inactive); in test [6], 17.2 µM (inactive); in test [7], 25.8 µM (inactive).
Turning to `CCN/C(=N\Nc1ccc([N+](=O)[O-])cc1)P(=O)(OC(C)C)OC(C)C`, the GI50 is > 100 µM (inactive) in test [3]; > 100 µM (inactive) in test [4]; > 100 µM (inactive) in test [5]; > 100 µM (inactive) in test [6]; > 100 µM (inactive) in test [7]; 66.5 µM (inactive) in test [8].
For `CC[C@@H]1C[C@@H](O)[C@@H]2[C@H](O)[C@H](O)CN2C1`, the GI50 in test [1] and in test [2] was > 100 µM (inactive) throughout.
`O=C(Nc1ccc(Cl)cc1Cl)c1cc2nc3ccccc3c(=O)n2c2ccccc12`: the GI50 in test [1] and in test [2] was > 10 µM (inactive) in each case.
Turning to `O=C(CC(C(=O)c1cccs1)c1ccsc1)c1ccsc1` (stereo unspecified), the GI50 was 28.3 µM (inactive) in test [1] and 29 µM (inactive) in test [2].
As for `CC(C)(C)OC(=O)Nc1nnc(S(N)(=O)=O)s1`, in test [1], the GI50 was > 100 µM (inactive).
In the case of `COc1ccc(NC(=O)Oc2cc(C)c3ccc(=O)cc-3o2)c(OC)c1.COc1ccc(NC(=O)Oc2ccc3c(C)cc(=O)oc3c2)c(OC)c1`, the GI50 in test [2] is > 100 µM (inactive).
`NC(=S)NS(=O)(=O)c1ccc(F)cc1F`: the GI50 in test [1] and in test [2] was > 100 µM (inactive) in each case.
With `COC(=O)C1CCC(=O)N1CN(C(C)=O)c1ccccc1` (stereo unspecified), in test [2], the GI50 is > 100 µM (inactive).
For `COC(=O)CCCC(=O)NC1=C(Nc2ccc(OC)cc2)C(=O)c2ccccc2C1=O`, in test [1], the GI50 is 19.5 µM (inactive).
Take `CC(=O)C1C(=O)C(=O)N(c2cccc([N+](=O)[O-])c2)C1=O` (stereo unspecified): the GI50 in test [1] and in test [2] was > 100 µM (inactive) in each case.
For the molecule `Nc1ncnc2c1ncn2CC(O)C(=O)O` (stereo unspecified), the GI50 in test [1], in test [3], in test [4], in test [5], in test [6] and in test [7] was > 100 µM (inactive) each time. The GI50 in test [2] is > 100 µM (inactive).
`Cc1nc(=O)[nH]c2s/c(=N/C3CCCCC3)n(C3CCCCC3)c(=O)c12`: the GI50 in test [2] is > 100 µM (inactive).
Still for that read-out and setting: the value for `C=C(C(=O)O)[C@@H]1C[C@@H]2O[C@H]1[C@@H](O)[C@@H](C)CCCC(C)=CCC[C@@]2(C)O` was > 100 µM (inactive).
As for `CC(=O)OCC1OC(N2C(=O)CC(N)=Nc3ccccc32)C(OC(C)=O)C(OC(C)=O)C1OC(C)=O` (stereo unspecified), the results for the GI50 in test [1] and in test [2] were 66.2 µM (inactive) and 42.6 µM (inactive), respectively.
For `Cc1nc2ccccc2c(=O)n1/N=C(\N=N\c1ccccc1Cl)c1ccccc1`, the GI50 in test [3] is 15.5 µM (inactive); in test [4], 31.6 µM (inactive); in test [5], 21.9 µM (inactive); in test [7] it was 25.8 µM (inactive); in test [8], 21.1 µM (inactive).
On to `C[N+]1(CCC[N+]2(C)CC3C4C=CC(CC4)C3C2)CCOCC1` (stereo unspecified), for which the GI50 in test [1] and in test [2] was > 100 µM (inactive) in each case.
Turning to `Nc1ccccc1.O=P(O)(OP(=O)(O)c1ccccc1)c1ccccc1`, the GI50 in test [1] and in test [2] was > 100 µM (inactive) each time.
With `O=C(c1ccccc1)C1CCCCN1C(=O)c1ccccc1` (stereo unspecified), the GI50 in test [3], in test [4], in test [5], in test [6] and in test [7] was > 100 µM (inactive) in each case.
With `O=C(/C=C1\Nc2ccccc2C(=O)N1c1ccc(Cl)cc1)c1ccncc1`, the GI50 in test [3] was > 100 µM (inactive); in test [5] it was > 100 µM (inactive); in test [6], > 100 µM (inactive); in test [7], > 100 µM (inactive); in test [8], 30.1 µM (inactive).
Regarding `Cc1n[nH]c(=O)n1C1CCCC1`, the GI50 in test [1] and in test [2] was > 100 µM (inactive) each time.
In the case of `O=C1C2C=CC(C2)C(c2ccc(O)cc2)N1O` (stereo unspecified), the GI50 in test [5], in test [6], in test [7] and in test [8] was > 100 µM (inactive) each time.
Turning to `Cc1c(Cl)cccc1NC(=O)CC1Sc2ccccc2NC1=O` (stereo unspecified), the GI50 in test [1] is 27 µM (inactive); in test [3] it was 27.3 µM (inactive) and 18.5 µM (inactive); in test [5], 24.6 µM (inactive) and 22.4 µM (inactive); in test [6], 45.5 µM (inactive) and 30.1 µM (inactive); in test [7], 46.9 µM (inactive) and 32 µM (inactive); in test [2], 27.4 µM (inactive). Further, the GI50 in test [8] is 22.9 µM (inactive) and 22.8 µM (inactive).
As to `CC(=O)Oc1ccc(/C=C/C(=O)NCCOC(=O)/C=C/c2ccc(OC(C)=O)c(OC(C)=O)c2)cc1OC(C)=O`, the GI50 in test [1] is 38.7 µM (inactive); in test [2], 34 µM (inactive).
As to `COC(=O)[C@@]12C3=NO[C@]1(C(=O)OC)C(O[Si](C)(C)C(C)(C)C)[C@H]1OC(C)(C)O[C@H]1[C@@H]2C(OCc1ccccc1)CC3` (stereo partly specified), the GI50 in test [3] was 36.6 µM (inactive); in test [4], 52 µM (inactive); in test [5], 71.1 µM (inactive); in test [6] it was 60 µM (inactive); in test [7], 71.8 µM (inactive).
As to `COc1ccc(/C=N/N=C(\N)NO)c(O)c1`, the GI50 in test [1] was > 10 µM (inactive); in test [2], 3.48 µM (inactive).
On to `Cn1c(O)c(C(=O)Nc2ccc([N+](=O)[O-])cc2)c(=O)n(C)c1=S`, for which the GI50 in test [1] is 1.17 µM (inactive); in test [3] it was 2.27 µM (inactive); in test [5] it was 4.21 µM (inactive); in test [6] it was 3.3 µM (inactive); in test [7] it was 3.69 µM (inactive); in test [2], 1.34 µM (inactive).
As to `CN(C)c1ccc(C2CC(c3ccc4ccccc4c3O)=NN2c2ccc([N+](=O)[O-])cc2[N+](=O)[O-])cc1` (stereo unspecified), the GI50 was 91 µM (inactive) in test [1] and 23.6 µM (inactive) in test [2].
As for `Cn1c(=O)c2nc(Nc3ccccc3)[nH]c2n(C)c1=O`, the GI50 in test [2] is > 10 µM (inactive).
Consider `Cc1cn(C2CC(ON3C(=O)c4ccccc4C3=O)C(CO)O2)c(=O)[nH]c1=O` (stereo unspecified), for which the GI50 in test [1] and in test [2] was > 10 µM (inactive) throughout.
For `CCCCC1=C(C(=O)N2CCOCC2)C2(OCCO2)C1Cl` (stereo unspecified), the GI50 in test [2] is 35.6 µM (inactive).
Same read-out and setting: next, `CC1(C)OC(=O)C(C#N)=C1C[n+]1ccccc1`: > 10 µM (inactive).
With `COC(=O)CCC1(O)C=CC(=O)C=C1`, the GI50 was 58.5 µM (inactive) in test [1] and > 100 µM (inactive) in test [2].
For `O=c1c2cc(S(=O)(=O)Nc3ccccc3Cl)ccc2ncn1NS(=O)(=O)c1ccc(Br)cc1`, the GI50 in test [1] and in test [2] was > 37.5 µM (inactive) in each case.
`CC1(C)C2CCC1(C)C(N/C(=C(/C(Cl)=C(Cl)Cl)[N+](=O)[O-])n1nnc3ccccc31)C2` (stereo unspecified): the values for the GI50 in test [1] and in test [2] were 22.2 µM (inactive) and 21.1 µM (inactive), respectively.
Consider `CC(C)/C(Cl)=N/OC(=O)Nc1ccc(Br)cc1`, for which the results for the GI50 in test [1] and in test [2] were 4.29 µM (inactive) and 13.6 µM (inactive), respectively.
For `CN1Cc2ccccc2/C=C\c2ccccc21`, the GI50 in test [1] was 70 µM (inactive); in test [2], 64 µM (inactive).
For the molecule `N=C(N)C1CN(CC=O)C(=O)NC1=O` (stereo unspecified), the GI50 in test [1] and in test [2] was > 100 µM (inactive) each time.
Consider `Cc1ccc(C(=O)N/N=C(\N=N\c2ccccc2)c2ccc(N(C)C)cc2)cc1`, for which the GI50 in test [1] and in test [2] was > 100 µM (inactive) throughout.
In the case of `CN1C(=O)CC2CCC(=O)N2c2cccnc21` (stereo unspecified), the GI50 in test [1] was > 100 µM (inactive).
Take `CCN(CC)CCCNc1nncc2cc3c([nH]c4ccc(OC)cc43)c(C)c12`: the GI50 in test [1] is 16.3 µM (inactive); in test [2], 4.01 µM (inactive).
For `CCC(=O)C(C(C)/C=C/CCSc1ccccc1)C(O)CCCCCC(=O)OC` (stereo unspecified), the GI50 in test [1] is > 100 µM (inactive); in test [2], 84.1 µM (inactive).
With `COC(=O)C1Cc2c([nH]c3ccccc23)C(c2ccccc2O)N1` (stereo unspecified), the GI50 in test [3] was 58.1 µM (inactive); in test [4], 60.4 µM (inactive); in test [5] it was 95.5 µM (inactive); in test [6], 62.7 µM (inactive).
For the molecule `COC(=O)C(Cc1ccc([N+](=O)[O-])cc1)NC(=O)C(CC(=O)OC(C)(C)C)NC(=O)OC(C)(C)C` (stereo unspecified) (Boc-Asp(OtBu)-[Phe(4-NO2)]-OMe; configuration not given here), the GI50 in test [1] and in test [2] was > 100 µM (inactive) each time.
Turning to `CC1=NN(c2nc(N)nc(CBr)n2)C(C)(C)C1`, the GI50 is 11.8 µM (inactive) in test [1] and 5.33 µM (inactive) in test [2].
For the molecule `Cc1cn(S(=O)(=O)c2ccccc2)c2c(OCc3ccccc3)cc(NS(C)(=O)=O)cc12`, the figures for the GI50 in test [1] and in test [2] were 27.6 µM (inactive) and 3.92 µM (inactive), respectively.
Regarding `CC1(C)S[C@H](c2ccccc2C(=O)O)N[C@@H]1CC(=O)O`, the GI50 in test [3], in test [4], in test [6] and in test [7] was > 100 µM (inactive) in each case.
For `O=C(O)c1ccc(OCc2nc3cc(C(F)(F)F)ccc3nc2-c2ccccc2)cc1`, the GI50 is 75.3 µM (inactive) in test [1] and 53.8 µM (inactive) in test [2].
On to `CC(=O)N1C(C(=O)NNc2ccccc2)CSC1c1ccccc1` (stereo unspecified), for which the GI50 is > 100 µM (inactive) in test [1] and 5.3 µM (inactive) in test [2].

The values above are taken from ChEMBL document CHEMBL1201862, “PubChem BioAssay data set” (2004).
